The values below come from US10793576B2, “Compound used as Bruton's tyrosine kinase inhibitor and preparation method and application thereof” (Chengdu Brilliant Pharmaceutical Co., LTD., priority 2017, dated 2020).

The structures appear in SMILES notation.

For one data set, the target named is BTK kinase (Homo sapiens (Human), UniProt Q06187). Kind of data set: In vitro assay for the inhibition of BTK kinase activity (Mobility-Shift Assay). It is filed as biochemical. The essentials: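 Fluorescently labelled peptide substrate converted by the kinase; substrate and phosphorylated product separated by charge on a microfluidic chip (mobility shift) and quantified separately. Results expressed as conversion rate; control wells received 100% DMSO.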
Chain of BTK kinase (Q06187 whole entry): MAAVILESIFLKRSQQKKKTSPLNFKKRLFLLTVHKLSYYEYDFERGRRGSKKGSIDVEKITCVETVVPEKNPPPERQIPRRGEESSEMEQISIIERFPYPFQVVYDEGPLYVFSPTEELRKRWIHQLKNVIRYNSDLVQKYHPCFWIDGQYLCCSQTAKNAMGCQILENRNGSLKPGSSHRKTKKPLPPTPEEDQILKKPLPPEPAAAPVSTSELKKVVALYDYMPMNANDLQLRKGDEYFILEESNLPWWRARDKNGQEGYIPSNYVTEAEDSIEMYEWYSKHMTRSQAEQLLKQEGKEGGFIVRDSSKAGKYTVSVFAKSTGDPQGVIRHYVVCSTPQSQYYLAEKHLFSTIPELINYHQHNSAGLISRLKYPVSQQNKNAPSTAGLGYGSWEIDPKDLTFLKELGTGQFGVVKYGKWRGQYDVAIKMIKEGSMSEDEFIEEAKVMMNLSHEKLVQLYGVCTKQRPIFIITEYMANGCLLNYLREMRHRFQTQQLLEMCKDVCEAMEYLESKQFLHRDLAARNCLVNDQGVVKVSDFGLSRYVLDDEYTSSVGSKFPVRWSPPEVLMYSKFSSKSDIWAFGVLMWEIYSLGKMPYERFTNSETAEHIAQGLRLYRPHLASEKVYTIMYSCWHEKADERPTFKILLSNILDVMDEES

In another data set the target is hERG potassium channel (Homo sapiens (Human), UniProt Q12809). Description: hERG experiment to investigate potential cardiotoxicity (manual patch clamp, CHO hERG cells). To be noted: whole cell patch clamp, tail current. It is filed as cell-based. Here is the method: CHO hERG cells were grown in a culture dish containing the above medium, and cultured in an incubator at 37° C. and 5% CO2. CHO hERG cells were transferred to circular glass slides placed in the culture dish 24-48 hours prior to electrophysiological experiments and grown under the same medium and culture conditions as above. The density of CHO hERG cells on each circular slide shall meet the requirement that most of the cells are independent and individual.
Chain of hERG potassium channel (Q12809 whole entry): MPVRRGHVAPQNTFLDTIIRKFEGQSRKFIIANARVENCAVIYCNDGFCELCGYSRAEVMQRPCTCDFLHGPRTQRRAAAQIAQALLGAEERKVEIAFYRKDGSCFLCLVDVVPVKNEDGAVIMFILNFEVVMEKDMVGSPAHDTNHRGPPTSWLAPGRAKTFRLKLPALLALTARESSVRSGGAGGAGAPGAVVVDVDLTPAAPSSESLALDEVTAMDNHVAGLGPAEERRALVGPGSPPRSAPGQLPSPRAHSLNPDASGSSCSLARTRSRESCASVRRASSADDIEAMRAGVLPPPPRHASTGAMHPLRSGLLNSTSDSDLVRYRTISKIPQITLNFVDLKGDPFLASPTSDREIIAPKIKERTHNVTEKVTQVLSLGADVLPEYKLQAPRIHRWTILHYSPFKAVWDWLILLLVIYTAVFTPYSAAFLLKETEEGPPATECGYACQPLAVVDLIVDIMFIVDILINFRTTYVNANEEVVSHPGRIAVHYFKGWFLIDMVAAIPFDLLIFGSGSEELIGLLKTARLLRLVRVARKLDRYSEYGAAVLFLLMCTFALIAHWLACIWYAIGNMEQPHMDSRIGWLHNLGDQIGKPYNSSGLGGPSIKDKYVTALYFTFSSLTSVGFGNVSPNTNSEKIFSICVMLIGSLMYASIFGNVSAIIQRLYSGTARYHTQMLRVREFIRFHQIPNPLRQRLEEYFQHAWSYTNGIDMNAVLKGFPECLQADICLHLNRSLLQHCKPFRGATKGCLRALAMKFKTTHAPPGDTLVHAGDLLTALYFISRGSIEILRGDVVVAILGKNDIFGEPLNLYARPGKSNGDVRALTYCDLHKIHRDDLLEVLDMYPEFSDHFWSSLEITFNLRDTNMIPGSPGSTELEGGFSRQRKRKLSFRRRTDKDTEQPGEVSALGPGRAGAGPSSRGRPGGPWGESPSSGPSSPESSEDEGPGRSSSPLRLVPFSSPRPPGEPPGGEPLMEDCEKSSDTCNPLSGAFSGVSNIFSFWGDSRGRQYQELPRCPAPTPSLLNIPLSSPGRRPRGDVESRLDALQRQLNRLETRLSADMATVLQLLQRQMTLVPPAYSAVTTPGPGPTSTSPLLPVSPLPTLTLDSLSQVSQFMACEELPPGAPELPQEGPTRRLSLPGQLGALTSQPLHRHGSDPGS
2: Preparation of Experimental Solutions
3: Electrophysiological Recording System
A manual patch clamp system (HEKA EPC-10 signal amplifier and digital conversion system, purchased from HEKA Electronics, Germany) is used in this experiment for whole cell currents recording. A circular slide with CHO hERG cells grown on its surface was placed in an electrophysiology recording tank under an inverted microscope. The extracellular fluid was continuously perfused in the recording tank (about 1 ml per minute). A conventional whole cell patch clamp current recording technique was used in the experimental procedure. Unless otherwise specified, the experiments were carried out at conventional room temperature (about 25° C.). The cells were clamped at a voltage of −80 mV. The clamp voltage for cells was depolarized to +20 mV to activate the hERG potassium channel, and after 5 seconds, the cells were clamped to −50 mV to eliminate inactivation and generate a tail current. The tail current peak was used as the value of the hERG current magnitude. After the hERG potassium current recorded in the above step was stable under the continuous extracellular fluid perfusion in the recording tank, the drug to be tested can be perfused simultaneously and filled until the inhibitory effect of the drug on the hERG current reached a steady state. Generally, the superposition of the last three consecutive current recording lines was used as a criterion for judging whether or not the state was stable. After reaching a steady state, a wash with extracellular fluid perfusion was conducted until the hERG returned to that before the drug was added. One cell can be used to test one or more drugs, or multiple concentrations of the same drug, but need to be washed with an extracellular fluid between different drugs. Cisapride (purchased from Sigma) was used as a positive control in the experiment to ensure that the cells used were of normal quality.
4: Treatment and Dilution of Compounds
Prior to testing, the compounds were first diluted to 10, 3, 1, 0.3, and 0.1 mM stock solutions by a method of gradual dilution with DMSO, and were then diluted to the final M test concentration with extracellular fluids. The final concentration of DMSO in each of the other compound solutions was 0.1%, except that the DMSO concentration in the 30 μM compound test solution was 0.3%. The test concentration of the positive control (Cisapride) was 0.1 μM. All compound solutions were sonicated and shaken for a routine of 5 to 10 minutes to ensure complete dissolution of the compounds.
The test data were analyzed by HEKA Patchmaster, Microsoft Excel and data analysis software provided by Graphpad Prism.
In general terms: Block of hERG is tested as a sign of cardiac risk.

Another data set deals with OCI-LY10 cells. Description: Cell proliferation inhibition in vitro, OCI-ly10 cells by CCK-8 method. Type of data set: cell-based. To be noted: Homo sapiens, 72 hours, read-out: Inhibitions of cell activities IC50 (nM) OCI-LY10. (Formazan colour is commonly taken as a measure of viable cells.)
The next data set has as its system TMD8 cells. Description: Cell proliferation inhibition in vitro, TMD8 cells by CCK-8 method. Conditions: Homo sapiens, 72 hours, read-out: Inhibitions of cell activities IC50 (nM) TMD8. Type of data set: cell-based.
The next data set relates to DOHH2 cells. Description: Cell proliferation inhibition in vitro, DOHH2 cells by CTG assay. Conditions: Homo sapiens, DOHH-2, 72 hours, read-out: Inhibitions of cell activities IC50 (nM) DOHH2. Type of data set: cell-based.
Data set [1] in a line: Pharmacokinetic test in SD rats (oral 10 mg/kg, intravenous 1 mg/kg). Type of data set: in vivo. To be noted: SD rat; for F (po) %: oral 10 mg/kg vs intravenous 1 mg/kg; for clearance / half-life / AUC / Cmax / Tmax: male, plasma; for clearance / half-life: intravenous 1 mg/kg; for clearance: read-out: Cl (iv) (converted); for half-life: read-out: T½ (iv) h (converted); for AUC / Cmax / Tmax: oral 10 mg/kg. As for the experimental part:
SD rat, male (purchased from Shanghai Sippr-Bk Laboratory Animal Co., Ltd.), each tested compound was administered at a single dose to SD rats by oral administration (10 mg/kg, 3 rats in each group) and intravenous administration (1 mg/kg, 3 rats in each group) for the pharmacokinetic study. The tested compounds were dissolved using DMSO/[…] sodium chloride injection=5/95 (V/V), and vortexed for 1 minute, and after 1 minute of sonication, the compounds were formulated into solutions for administrations. Animals were fasted for 16-17 hours prior to oral administration and feeding was restored 4 hours after administration. After oral and intravenous administration, pharmacokinetic samples were collected from SD rats by jugular vein or cardiac puncture at the following time points: before administration, 5 minute, 15 minute, 30 minute, 1 hour, 2 hours, 4 hours, 6 hours, 8 hours and 24 hours after administration. 3 whole blood samples were collected at each time point, and the collected amount was about 0.2 mL, and the collected samples were anticoagulated by heparin sodium. After collection, the blood samples were immediately placed on ice and centrifuged to separate plasma within 30 minutes (centrifugation conditions: 8000 rpm, 6 minute, 2-8° C.). The collected plasma was stored at −70° C. prior to analysis. 50 μL of plasma sample was brought into a 1.5 mL centrifuge tube, 250 μL of internal standard solution (blank with no internal standard but the same volume of methanol added) was added, blended with vortex, centrifuged at 15000 rpm for 5 minutes. 200 μL of supernatant was taken and added to a 96-well sample plate and the samples were analyzed by LC-MS/MS.

With `C=CC(=O)N1C2CCC1(c1nc(-c3ccc(C(=O)Nc4ccccn4)cc3)c3c(N)nccn13)COC2` (centres unmarked) [Example 11], the IC50 (in general, the concentration that inhibits the measured activity by half) at BTK kinase came out at 2.6 nM. The IC50 on hERG potassium channel was > 30 µM. Besides, in the data set with OCI-LY10 cells, the IC50 was determined as 1.8 nM. For the same compound, the IC50 in the data set on TMD8 cells came to 1.5 nM. Further, the IC50 with DOHH2 cells came out at 133 nM. Also, in data set [1], the “F (po) %” value stood at 34.59%, the clearance is 36.5 mL/min/kg, the half-life was 28.2 min and the AUC (commonly concentration integrated over time) was 1580 ng·h/mL. Also, in data set [1], the Cmax (as a rule, the peak of the concentration-time curve) was 1610 ng/mL and the Tmax (as a rule, the time from dosing to the highest level) was determined as 19.8 min.

As for `C=CC(=O)N1C2C[C@@H](C1c1nc(-c3ccc(C(=O)Nc4ccccn4)cc3)c3c(N)nccn13)N(C(C)=O)C2` (some centres unmarked) [Example 18], the IC50 on BTK kinase is 1.4 nM; at hERG potassium channel, > 30 µM; with OCI-LY10 cells it was 0.25 nM; in the data set with TMD8 cells, 1.6 nM; in the data set with DOHH2 cells, 177 nM.

As for `C=CC(=O)N1CC2CCCC2[C@H]1c1nc(-c2ccc(Oc3ccccc3)cc2)c2c(N)nccn12` (some centres unmarked) [Example 96], the IC50 against hERG potassium channel was > 30 µM.

Regarding `C=CC(=O)N1CC2CCCC2C1c1nc(-c2ccc(C(=O)Nc3ccccn3)cc2)c2c(N)nccn12` (centres unmarked) [Example 3], at hERG potassium channel, the IC50 is > 30 µM. The IC50 in the data set on OCI-LY10 cells turned out to be 0.24 nM. The IC50 in the data set on TMD8 cells was 0.26 nM. In addition, in the data set on DOHH2 cells, the IC50 turned out to be 191 nM. In addition, in data set [1], the “F (po) %” value was determined as 52.55%, the clearance is 57 mL/min/kg, the half-life was 37.2 min and the AUC came to 1490 ng·h/mL. Moreover, in data set [1], the concentration peaked (Cmax) at 1620 ng/mL and the Tmax was determined as 16.2 min.

`CC#CC(=O)N1C2CC[C@@H](C2)C1c1nc(-c2ccc(C(=O)Nc3cc(C(F)(F)F)ccn3)cc2)c2c(N)nccn12` (some centres unmarked) [Example 47]: the IC50 at BTK kinase was found to be 5.2 nM. Moreover, the IC50 against hERG potassium channel is > 30 µM. Moreover, the IC50 with OCI-LY10 cells amounted to 0.41 nM. The IC50 in the data set on TMD8 cells was 4.6 nM. Moreover, the IC50 with DOHH2 cells was found to be 172 nM. Besides, in data set [1], the “F (po) %” value is 21.89%, the clearance was 38 mL/min/kg, the half-life was 18 min and the AUC was 971 ng·h/mL. In addition, in data set [1], the Cmax was 1120 ng/mL and the Tmax turned out to be 15 min.

Consider `C=CC(=O)N1C2CC[C@@H](C2)C1c1nc(-c2ccc(C(C)(O)c3ccccc3)cc2)c2c(N)nccn12` (some centres unmarked) [Example 79], for which the IC50 at BTK kinase is 4.9 nM. Also, the IC50 on hERG potassium channel is > 30 µM. In the data set on OCI-LY10 cells, the IC50 is 0.13 nM. Besides, the IC50 in the data set on TMD8 cells was found to be 1.2 nM. Further, the IC50 with DOHH2 cells was 164 nM. In addition, in data set [1], the “F (po) %” value was 27.12%, the clearance is 57.5 mL/min/kg, the half-life is 31.2 min and the AUC was 770 ng·h/mL. In addition, in data set [1], the highest level (Cmax) was 1110 ng/mL and the Tmax came to 12.6 min.

As for `C=CC(=O)N1[C@@H]2CC[C@@H](C2)[C@H]1c1nc(-c2ccc(C(=O)Nc3ccccn3)cc2)c2c(N)nccn12` [Example 22, 4-(3-((1R,3S,4S)-2-acryloyl-2-azabicyclo[2.2.1]heptan-3-yl)-8-aminoimidazo[1,5-a]pyrazin-1-yl)-N-(pyridin-2-yl)benzamide], the IC50 on BTK kinase came out at 3.3 nM. The IC50 on hERG potassium channel was > 30 µM. For the same compound, the IC50 with OCI-LY10 cells came out at 0.38 nM. For the same compound, in the data set on TMD8 cells, the IC50 came to 4.2 nM. Moreover, the IC50 in the data set with DOHH2 cells came to 182 nM. In data set [1], the “F (po) %” value amounted to 36.56%, the clearance was 58.5 mL/min/kg, the half-life is 36 min and the AUC was 1040 ng·h/mL. Moreover, in data set [1], the Cmax turned out to be 1160 ng/mL and the Tmax stood at 15 min.

With `C=CC(=O)N1C[C@H]2[C@@H]([C@H]1c1nc(-c3ccc(C(=O)Nc4ccccn4)cc3)c3c(N)nccn13)C2(C)C` [Example 5], the IC50 on BTK kinase was 21 nM. Further, the IC50 on hERG potassium channel is > 30 µM. Besides, in the data set with OCI-LY10 cells, the 50% inhibitory concentration (IC50) was determined as 0.21 nM. In the data set on TMD8 cells, the IC50 amounted to 3.6 nM. For the same compound, the IC50 in the data set with DOHH2 cells is 175 nM. In data set [1], the “F (po) %” value is reported as 20.64%, the clearance was 121 mL/min/kg, the half-life is 7.8 min and the AUC amounted to 278 ng·h/mL. In data set [1], the peak level (Cmax) was 303 ng/mL and the Tmax came out at 6 min.
